In a melting point compilation (Tetko et al.; mined from patent text by program, amines drawn as free bases though some values may be those of a salt):

| melting point | SMILES |
| --- | --- |
| 138 to 141 °C | O=S(=O)(c1c[nH]cc1-c1ccc(Cl)cc1)C(F)(F)F |
| 63.6 °C | C=CC(=O)Oc1ccc(-c2cccc(OC(=O)C=C)c2)cc1 |
| 144 to 146 °C | CC(=O)NC=Cc1ccc(OCC(O)CNC(C)C)cc1 (centres undefined) |
| 219 to 220 °C | CC1CN(C(P(=O)(O)O)P(=O)(O)O)CC(C)S1 (centres undefined) |
| 125 to 126 °C | S=C(Nc1ccc(Sc2ccc3ccccc3n2)cc1)Nc1ccc(Cl)c(Cl)c1 |
| > 300 °C | O=C(NN1CCNC1=O)c1c[nH]c2cc(O)c(O)cc2c1=O |
| 136 to 137 °C | CCc1ccc2ncc(NC(=O)C=Cc3cc(OC)c(OC(C)=O)c(OC)c3)c(-c3ccccc3Cl)c2c1 |
| 179 to 181 °C | CSCCCCCn1c(CCC(C)=O)nc2c(N)nc3ccccc3c21 |
| 197 to 205 °C | COc1ccc(CN(CCC(=O)O)c2nc(NC(=O)Nc3ccccc3OC)nc(Oc3ccc4ccccc4c3)n2)cc1 |
| 196 to 198 °C | CC(C)(C)C(NC(=O)c1ccc(Cl)cc1)NC(=NC#N)Nc1cc(F)cc(F)c1 (centres undefined) |
| 114 to 117 °C | CCCCNC(=O)C1Cc2c([nH]c3ccccc23)C(c2ccc3c(c2)OCO3)N1C(=O)C=Cc1ccccc1 (centres undefined) |
| 86 to 87 °C | CCOC(=O)C1NCCN(C(=O)OC(C)(C)C)C1=O (centres undefined) |
| 174 to 175 °C | CCOC(=O)c1c(CN2CCOCC2)nc2cc3c(cc2c1-c1ccc(OC)c(OC)c1)OCCO3 |
| 215 to 216 °C | COc1ccc(-c2sc3c(c2C)c(=O)c(C(C)=O)cn3Cc2ccccc2F)cc1 |
| 172 to 173 °C | CC(=O)NC1=NN(c2ccc(Cl)cc2)CC1C (centres undefined) |
| 50 to 52 °C | CC(C)(C)OC(=O)NCCCc1ccccc1OCc1ccccc1 |
| 206 to 207 °C | Cc1cc(C)c(C(O)c2cc(-n3ccnc3)ccc2Cl)c(C)c1 (centres undefined) |
| 154 °C | COc1cccc(NC(=O)c2ccn3c2CSC3c2cccnc2)n1 (centres undefined) |
| 198 to 201 °C | COc1ccc(-c2ccc3c(c2)C=C(C(=O)Nc2ccc(CN(C)C4CCC5(CC4)OCCO5)cc2)CCS3)cc1 |

| melting point | SMILES |
| --- | --- |
| 112 to 114 °C | COc1cccc(NS(=O)(=O)c2sccc2C2OCCO2)c1 |
| 122 to 126 °C | COc1ccc(Cn2c(N)c(C#N)c3c2CCCC3)cc1 |
| 138 to 139 °C | COc1ccc2c(c1)C(CCNC(=O)C(F)(F)F)=C(c1ccccc1)C2 |
| 221 to 227 °C | CS(=O)(=O)N(N)C(=O)c1cc([N+](=O)[O-])c(C(F)(F)F)cc1N |
| 179 to 181 °C | COc1ccc(-c2cn3c(n2)-c2ccccc2CC3)cc1 |
| 273 to 274 °C | N#Cc1cn(-c2c(Cl)cccc2Cl)c(=O)[nH]c1=O |
| 162 to 164 °C | CC(C)(C)OC(=O)NC1CCCCCC=CC2CC2(C(=O)NS(=O)(=O)C2CC2)NC(=O)C2CC(OC(=O)c3ccc(-c4ccccc4)cc3)CN2C1=O (centres undefined) |
| 201 to 203 °C | O=C(Nc1ccc2[nH]c(=O)sc2c1)C(=O)N1CCC(Cc2ccccc2)CC1 |
| 118 to 120 °C | O=C(Oc1ccc([N+](=O)[O-])cc1)OC1CCN(C(=O)OCc2ccccc2)CC1 |
| 139 to 141 °C | O=C(NC(=O)N(SN1CCCCC1=O)c1ccc(Oc2ccc(C(F)(F)F)cc2Cl)cc1F)c1c(F)cccc1F |
| 90 to 91 °C | CCCCCCCNC(=NC#N)Nc1cccnc1 |
| 225 to 226 °C | O=C(Nc1nc(=O)c2cnn3c2n1CC=C3c1cccc(C(F)(F)F)c1)OCC(Cl)(Cl)Cl |
| 111 to 113 °C | C=CC(=O)c1ccc(OCC(=O)O)c(Cl)c1Cl |
| 109 to 110 °C | CCOC(=O)C(=CNc1ccc(OC)c(C)n1)C(=O)OCC |
| 92 to 94 °C | CC(CC(=O)O)c1ccc(O)cc1O (centres undefined) |
| > 300 °C | Nc1cc2nc(O)c(O)nc2c2c1CCCC2 |
| 190 to 196 °C | COC(=O)c1cccc2[nH]c3cc4ccccc4c(OC)c3c12 |
| 115 °C | CCC(=O)C1c2cccc(O)c2C(=O)c2c(O)cccc21 |
| 63 to 64 °C | Cc1cc(Cl)cnc1N |

| SMILES | melting point |
| --- | --- |
| C=CCC12CCN=C1C(Br)Cc1ccc(OC)cc12 (centres undefined) | 112 to 117 °C |
